Test results published in ChEMBL document CHEMBL1201862, “PubChem BioAssay data set” (2004).
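Interpolation was linear, between the two tested concentrations surrounding the appropriate level; five concentrations were tested over 48 hours in 96-well plates. GI50 is the concentration that inhibits growth by half.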 Activity calls are given as the source filed them. No stated cut-off is given here; in the data, active = GI50 up to about 1.1 µM and inactive = higher.

Columns and labels:
Experiment in all cases: DTP human tumour cell line panel, 48 h
SW-620 = tested on: SW-620
RPMI-8226 = tested on: RPMI-8226
Malme-3M = tested on: Malme-3M
U-251 = tested on: U-251
HCT-15 = tested on: HCT-15
LOX IMVI = tested on: LOX IMVI
SNB-19 = tested on: SNB-19
BT-549 = tested on: BT-549
SK-OV-3 = tested on: SK-OV-3
UACC-257 = tested on: UACC-257
IGROV-1 = tested on: IGROV-1
HCT-116 = tested on: HCT-116
CAKI-1 = tested on: CAKI-1
SK-MEL-2 = tested on: SK-MEL-2
Hs-578T = tested on: Hs-578T
DU-145 = tested on: DU-145
MOLT-4 = tested on: MOLT-4
SN12C = tested on: SN12C
SF-295 = tested on: SF-295
A498 = tested on: A498

Structure (SMILES): CC1=C(C(=O)OC(C)C)C(c2cccc([N+](=O)[O-])c2)C(C(=O)OC(CO[N+](=O)[O-])CO[N+](=O)[O-])=C(C)N1 (centres undefined)
- GI50 (SW-620): 4.14 µM (inactive)
- GI50 (RPMI-8226): 1.05 µM (active)
- GI50 (Malme-3M): 5.15 µM (inactive)
- GI50 (U-251): 2.24 µM (inactive)
- GI50 (HCT-15): 2.86 µM
- GI50 (LOX IMVI): 3.08 µM (inactive)
- GI50 (SNB-19): 2.99 µM (inactive)
- GI50 (BT-549): 2.67 µM (inactive)
- GI50 (SK-OV-3): 7.01 µM (inactive)
- GI50 (UACC-257): 3.54 µM (inactive)
- GI50 (IGROV-1): 4.75 µM (inactive)
- GI50 (HCT-116): 2.66 µM (inactive)
- GI50 (CAKI-1): 3.99 µM (inactive)
- GI50 (SK-MEL-2): 2.39 µM (inactive)
- GI50 (Hs-578T): 3.51 µM (inactive)
- GI50 (DU-145): 11.4 µM (inactive)
- GI50 (MOLT-4): 1.85 µM (inactive)
- GI50 (SN12C): 3.97 µM (inactive)
- GI50 (SF-295): 0.501 µM (active)

Structure (SMILES): COC(=O)[C@@H]1C[C@]2(CC=C(C)C)c3ccccc3N(S(=O)(=O)c3ccccc3)[C@@H]2N1C(=O)OC
- GI50 (SW-620): 40.6 µM (inactive)
- GI50 (RPMI-8226): 6.67 µM (inactive)
- GI50 (Malme-3M): 32.5 µM (inactive)
- GI50 (U-251): 13.3 µM (inactive)
- GI50 (HCT-15): 10.4 µM
- GI50 (LOX IMVI): 21.5 µM (inactive)
- GI50 (SNB-19): 34.1 µM (inactive)
- GI50 (BT-549): 32.2 µM (inactive)
- GI50 (SK-OV-3): 10.6 µM (inactive)
- GI50 (UACC-257): 10.7 µM (inactive)
- GI50 (HCT-116): 20 µM (inactive)
- GI50 (CAKI-1): 27.2 µM (inactive)
- GI50 (SK-MEL-2): 5.96 µM (inactive)
- GI50 (Hs-578T): 10.6 µM (inactive)
- GI50 (DU-145): > 100 µM (inactive)
- GI50 (MOLT-4): 8.2 µM (inactive)
- GI50 (SN12C): 40.6 µM (inactive)
- GI50 (SF-295): 24.3 µM (inactive)

Structure (SMILES): Cc1cc(S(=O)(=O)N2CCNNC2=O)c(S)cc1Cl
- GI50 (SW-620): 36.9 µM (inactive)
- GI50 (RPMI-8226): 71.4 µM (inactive)
- GI50 (Malme-3M): 17.7 µM (inactive)
- GI50 (U-251): > 100 µM (inactive)
- GI50 (HCT-15): 56.5 µM
- GI50 (LOX IMVI): 28.8 µM (inactive)
- GI50 (SNB-19): > 100 µM (inactive)
- GI50 (BT-549): 20.8 µM (inactive)
- GI50 (A498): > 100 µM (inactive)
- GI50 (UACC-257): > 100 µM (inactive)
- GI50 (IGROV-1): 87.9 µM (inactive)
- GI50 (CAKI-1): 33.5 µM (inactive)
- GI50 (SK-MEL-2): > 100 µM (inactive)
- GI50 (Hs-578T): > 100 µM (inactive)
- GI50 (DU-145): > 100 µM (inactive)
- GI50 (MOLT-4): 31.6 µM (inactive)
- GI50 (SN12C): > 100 µM (inactive)
- GI50 (SF-295): > 100 µM (inactive)

Structure (SMILES): O=[N+]([O-])c1ccc2nnnn2c1
- GI50 (SW-620): 12.7 µM (inactive)
- GI50 (Malme-3M): 20.9 µM (inactive)
- GI50 (U-251): 23.2 µM (inactive)
- GI50 (HCT-15): 8.22 µM
- GI50 (LOX IMVI): 5.7 µM (inactive)
- GI50 (SNB-19): 93.8 µM (inactive)
- GI50 (BT-549): 23.3 µM (inactive)
- GI50 (SK-OV-3): 42.6 µM (inactive)
- GI50 (UACC-257): 27.8 µM (inactive)
- GI50 (IGROV-1): 34.3 µM (inactive)
- GI50 (HCT-116): 4.18 µM (inactive)
- GI50 (CAKI-1): 17.6 µM (inactive)
- GI50 (SK-MEL-2): 23.3 µM (inactive)
- GI50 (Hs-578T): 5.38 µM (inactive)
- GI50 (DU-145): 37.2 µM (inactive)
- GI50 (MOLT-4): 2.62 µM (inactive)
- GI50 (SN12C): 19.8 µM (inactive)
- GI50 (SF-295): 11.3 µM (inactive)

Structure (SMILES): Cc1nc(N)c(N2CCN(C(=O)O)CC2)c(O)n1
- GI50 (SW-620): > 100 µM (inactive)
- GI50 (RPMI-8226): > 100 µM (inactive)
- GI50 (Malme-3M): > 100 µM (inactive)
- GI50 (U-251): > 100 µM (inactive)
- GI50 (HCT-15): > 100 µM
- GI50 (LOX IMVI): > 100 µM (inactive)
- GI50 (SNB-19): > 100 µM (inactive)
- GI50 (BT-549): > 100 µM (inactive)
- GI50 (A498): > 100 µM (inactive)
- GI50 (UACC-257): > 100 µM (inactive)
- GI50 (HCT-116): > 100 µM (inactive)
- GI50 (SK-MEL-2): > 100 µM (inactive)
- GI50 (Hs-578T): > 100 µM (inactive)
- GI50 (DU-145): > 100 µM (inactive)
- GI50 (MOLT-4): > 100 µM (inactive)
- GI50 (SN12C): > 100 µM (inactive)
- GI50 (SF-295): > 100 µM (inactive)

Structure (SMILES): N#CCc1nc(-c2cc3ccccc3oc2=O)cs1
- GI50 (SW-620): > 100 µM (inactive)
- GI50 (RPMI-8226): 33.7 µM (inactive)
- GI50 (Malme-3M): 65.8 µM (inactive)
- GI50 (U-251): > 100 µM (inactive)
- GI50 (HCT-15): 35.8 µM
- GI50 (LOX IMVI): 56.9 µM (inactive)
- GI50 (SNB-19): > 100 µM (inactive)
- GI50 (BT-549): 17.9 µM (inactive)
- GI50 (SK-OV-3): > 100 µM (inactive)
- GI50 (UACC-257): 27.1 µM (inactive)
- GI50 (IGROV-1): 40.6 µM (inactive)
- GI50 (HCT-116): 80.5 µM (inactive)
- GI50 (CAKI-1): > 100 µM (inactive)
- GI50 (SK-MEL-2): 25.4 µM (inactive)
- GI50 (Hs-578T): 56.9 µM (inactive)
- GI50 (DU-145): > 100 µM (inactive)
- GI50 (MOLT-4): 16.6 µM (inactive)
- GI50 (SN12C): > 100 µM (inactive)
- GI50 (SF-295): 72.6 µM (inactive)
